Results: patent publication EP4603105A1, “PHARMACEUTICAL COMPOSITION CONTAINING CYCLIC COMPOUND HAVING SELECTIVE KRAS INHIBITORY EFFECT AGAINST HRAS AND NRAS” (CHUGAI SEIYAKU KABUSHIKI KAISHA, priority 2022, dated 2024)
Read-outs that look alike come from different tables or passages of the source. Where a SMILES comes first, the peptide text is derived from it. Bridges are numbered along the chain shown (N, C = ends). [ ]: non-standard residue; d: D form. The star is where a group is joined. hPhe(3-Cl-4-CF3) = N[C@@H](CCc1ccc(C(F)(F)F)c(Cl)c1)C(=O)O; NPrPhe(4-CF3) = CCCN[C@@H](Cc1ccc(C(F)(F)F)cc1)C(=O)O; NEtPhe(4-Me) = CCN[C@@H](Cc1ccc(C)cc1)C(=O)O; NMeGly(cPent) = CN[C@H](C(=O)O)C1CCCC1; Pro(4,4-Me2) = CC1(C)CN[C@H](C(=O)O)C1; Hyp = O=C(O)[C@@H]1C[C@@H](O)CN1; NMeD = CN[C@@H](CC(=O)O)C(=O)O; NMeL = CN[C@@H](CC(C)C)C(=O)O; Morpholide = C1CN(*)CCO1; NMeA = CN[C@@H](C)C(=O)O; Ac5c = NC1(C(=O)O)CCCC1; Aze = O=C(O)[C@@H]1CCN1; Ac4c = NC1(C(=O)O)CCC1; NEtG = CCNCC(=O)O; Sar = CNCC(=O)O

What was measured:
[1] = biological target: HRAS wild-type protein (Homo sapiens, UniProt P01112); experiment: Binding to HRAS by surface plasmon resonance (SPR), KD and KD ratio to KRAS
How it was run: (§1)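 Each cycle, GDP-bound biotin-Avi RAS was captured (~100–300 RU), compound concentrations were injected low to high for 75 s each at 100 µL/min, then the chip was regenerated. Buffer: HBS pH 7.4, 10 mM MgCl2, 10 µM GDP, 1 mM DTT, 4% DMSO; 30°C. KD from a 1:1 binding model.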

[2] = biological target: GDP-bound NRAS wild-type protein (Homo sapiens, UniProt P01111); experiment: Binding to NRAS by surface plasmon resonance (SPR), KD and KD ratio to KRAS
How it was run: as §1

[3] = test system: human lung cancer strain NCI-H441; format: cell-based
How it was run: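 Signal came from […] measured per well once the reagent was added. Beforehand, cells were cultured at 37°C and 5% carbon dioxide on a compound series serially diluted in dimethyl sulfoxide.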

[4] = ratio of KD for HRAS wild-type protein to KD for KRAS
[5] = ratio of KD for GDP-bound NRAS wild-type protein to KD for KRAS
[6] = ratio of KD value for HRAS wild-type protein to KD value for KRAS (SPR)
[7] = ratio of KD value for GDP-bound NRAS wild-type protein to KD value for KRAS (SPR)
[8] = ratio of the KD value with respect to HRAS wild-type protein to the KD value with respect to KRAS
[9] = ratio of the KD value with respect to GDP-bound NRAS wild-type protein to the KD value with respect to KRAS

Sequence of GDP-bound NRAS wild-type protein (P01111 whole entry): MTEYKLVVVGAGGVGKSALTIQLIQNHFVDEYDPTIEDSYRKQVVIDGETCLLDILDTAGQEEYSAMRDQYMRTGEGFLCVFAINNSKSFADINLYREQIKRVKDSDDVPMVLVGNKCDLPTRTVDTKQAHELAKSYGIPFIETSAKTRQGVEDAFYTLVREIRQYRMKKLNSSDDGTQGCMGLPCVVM
Sequence of HRAS wild-type protein (P01112 whole entry): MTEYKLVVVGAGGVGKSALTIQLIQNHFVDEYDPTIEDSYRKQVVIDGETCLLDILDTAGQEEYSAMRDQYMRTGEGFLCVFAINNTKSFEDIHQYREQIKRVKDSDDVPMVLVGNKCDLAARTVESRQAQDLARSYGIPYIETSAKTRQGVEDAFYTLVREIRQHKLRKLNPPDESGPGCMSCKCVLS

Row | SMILES | IC50 [3] | HRAS /KRAS [1, 4] | NRAS /KRAS [2, 5] | IC50 ([3]; NCI-H441 cells, 4 days, CellTiter-Glo, read-out: NCl-H441 IC50) | HRAS /KRAS [1, 6] | NRAS /KRAS [2, 7] | HRAS /KRAS [1, 8] | NRAS /KRAS [2, 9]
1 | CCC[C@H]1C(=O)N[C@@H]([C@@H](C)CC)C(=O)N(C)CC(=O)N(C)[C@H]2C/C=C\CCN(C2=O)[C@@H](Cc2ccc(C(F)(F)F)cc2)C(=O)N(C)CC(=O)N[C@@H](CCc2ccc(C3CC3)c(C)c2)C(=O)N2C[C@H](OCC)C[C@H]2C(=O)NC2(CC(C)(C)C2)C(=O)N(C)[C@@H](C2CCCC2)C(=O)N(C)[C@H](C(=O)N(C)C)CC(=O)N1C [PP2855] | – | A (a compound having 10 or more and less than 20 is denoted as A) | A (a compound having 10 or more and less than 20 is denoted as A) | 37.9 nM | – | – | – | –
2 | CCC[C@H]1C(=O)N[C@@H](C2CCCC2)C(=O)N(C)CC(=O)N(C)[C@H]2C/C=C\CCN(C2=O)[C@@H](Cc2ccc(C(F)(F)F)cc2)C(=O)N(C)CC(=O)N[C@@H](CCc2ccc(C(F)(F)F)c(Cl)c2)C(=O)N2C[C@H](OCC)C[C@H]2C(=O)NC2(CC(C)(C)C2)C(=O)N(C)[C@@H](C2CCCC2)C(=O)N(C)[C@H](C(=O)N(C)C)CC(=O)N1C [PP2984] | 9.6 nM | B (a compound having 3 or more and less than 10 is denoted as B) | A (a compound having 10 or more and less than 20 is denoted as A) | – | – | – | – | –
3 | CCC[C@H]1C(=O)N[C@@H]([C@@H](C)CC)C(=O)N(C)CC(=O)N(C)[C@H]2C/C=C\CCN(C2=O)[C@@H](Cc2ccc(C(F)(F)F)cc2)C(=O)N(C)CC(=O)N[C@@H](CCc2cc(F)c(C(F)F)c(F)c2)C(=O)N2C[C@H](OCC)C[C@H]2C(=O)NC2(CC(C)(C)C2)C(=O)N(C)[C@@H](C2CCCC2)C(=O)N(C)[C@H](C(=O)N(C)C)CC(=O)N1C [PP2780] | 17.8 nM | A (a compound having 10 or more and less than 20 is denoted as A) | A (a compound having 10 or more and less than 20 is denoted as A) | – | – | – | – | –
4 | CCCN1C(=O)[C@@H]2CCN2C(=O)[C@H](C)N(C)C(=O)[C@H]([C@@H](C)CC)NC(=O)[C@H](CC(C)C)N(C)C(=O)C[C@@H](C(=O)N2CCOCC2)NC(=O)[C@H](C2CCCC2)N(C)C(=O)C2(CCC2)NC(=O)[C@@H]2C[C@@H](OCC)CN2C(=O)[C@H](CCc2ccc(C(F)(F)F)c(Cl)c2)NC(=O)CN(C)C(=O)[C@@H]1Cc1ccc(C(F)(F)F)cc1 [PP0348] ([NMeL]I[NMeA][Aze][NPrPhe(4-CF3)][Sar][hPhe(3-Cl-4-CF3)][Hyp](Et)[Ac4c][NMeGly(cPent)]D-Morpholide; lactam N-11) | 15.1 nM | B (a compound having 3 or more and less than 10 is denoted as B) | C (A compound having a KD ratio of 0.1 or more and less than 3 is denoted as C) | – | – | – | – | –
5 | CCCN1C(=O)[C@@H]2CCN2C(=O)[C@H](C)N(C)C(=O)[C@H]([C@@H](C)CC)NC(=O)[C@H](CC(C)C)N(C)C(=O)C[C@@H](C(=O)N2CCOCC2)N(C)C(=O)[C@H](C2CCCC2)N(C)C(=O)C2(CCCC2)NC(=O)[C@H](C)NC(=O)[C@H](CCc2ccc(C(F)(F)F)c(Cl)c2)NC(=O)CN(C)C(=O)[C@@H]1Cc1ccc(C(F)(F)F)cc1 [PP0153] ([NMeL]I[NMeA][Aze][NPrPhe(4-CF3)][Sar][hPhe(3-Cl-4-CF3)]A[Ac5c][NMeGly(cPent)][NMeD]-Morpholide; lactam N-11) | 11.6 nM | C (A compound having a KD ratio of 0.1 or more and less than 3 is denoted as C) | C (A compound having a KD ratio of 0.1 or more and less than 3 is denoted as C) | – | – | – | – | –
6 | CC[C@H](C)[C@@H]1NC(=O)[C@H](CC(C)C)N(C)C(=O)C[C@@H](C(=O)N2CCOCC2)N(C)C(=O)[C@H](C2CCCC2)N(C)C(=O)C2(CCCC2)NC(=O)[C@@H]2CCCN2C(=O)[C@H](CCc2ccc(C(F)(F)F)c(Cl)c2)NC(=O)CN(C)C(=O)[C@H](Cc2ccc(C)cc2)N(CC)C(=O)CN(CC)C(=O)CN(C)C1=O [PP0027] ([NMeL]I[Sar][NEtG][NEtPhe(4-Me)][Sar][hPhe(3-Cl-4-CF3)]P[Ac5c][NMeGly(cPent)][NMeD]-Morpholide; lactam N-11) | 17.1 nM | C (A compound having a KD ratio of 0.1 or more and less than 3 is denoted as C) | C (A compound having a KD ratio of 0.1 or more and less than 3 is denoted as C) | – | – | – | – | –
7 | CCO[C@@H]1C[C@H]2C(=O)NC3(CC(C)(C)C3)C(=O)N(C)[C@@H](C(CC)CC)C(=O)N(C)[C@H](C(=O)N(C)C)CC(=O)N(C)[C@@H](CC3CCC3)C(=O)N[C@@H]([C@@H](C)CC)C(=O)N(C)CC(=O)N(C)[C@H]3C/C=C\CCN(C3=O)[C@@H](Cc3ccc(C(F)(F)F)cc3)C(=O)N(C)CC(=O)N[C@@H](CCc3ccc(C(F)(F)F)c(OC)c3)C(=O)N2C1 [PP2164] | 14.2 nM | – | – | – | – | – | A (a compound having 10 or more and less than 20 is denoted as A) | A (a compound having 10 or more and less than 20 is denoted as A)

Now from value to molecule, other results behind:

Row | IC50 [3] | SMILES | HRAS /KRAS [1, 4] | NRAS /KRAS [2, 5] | IC50 ([3]; NCI-H441 cells, 4 days, CellTiter-Glo, read-out: NCl-H441 IC50) | HRAS /KRAS [1, 6] | NRAS /KRAS [2, 7] | HRAS /KRAS [1, 8] | NRAS /KRAS [2, 9]
8 | 5.1 nM | CCO[C@@H]1C[C@H]2C(=O)N(C)C3(CCC3)C(=O)N(C)[C@@H](C3CCCC3)C(=O)N(C)[C@H](C(=O)N(C)C)CC(=O)N(C)[C@@H](CC3CC3)C(=O)N[C@@H]([C@@H](C)CC)C(=O)N3CCC[C@H]3C(=O)N(C)[C@H]3C/C=C\CCN(C3=O)[C@@H](Cc3ccc(C)cc3)C(=O)N(C)CC(=O)N[C@@H](CCc3cc(F)c(C(F)(F)F)c(F)c3)C(=O)N2C1 [PP1797] | – | – | – | A (a compound having 10 or more and less than 20 is denoted as A) | A (a compound having 10 or more and less than 20 is denoted as A) | – | –
9 | 7.9 nM | CCO[C@@H]1C[C@H]2C(=O)NC3(CC(C)(C)C3)C(=O)N(C)[C@@H](C3CCCC3)C(=O)N(C)[C@H](C(=O)N(C)CC)CC(=O)N(C)[C@H]3CCCC/C=C/c4ccc(cc4)C[C@@H](C(=O)N(C)CC(=O)N[C@@H](CCc4ccc(Cl)c(Cl)c4)C(=O)N2C1)N1CC/C=C\C[C@@H](C1=O)N(C)C(=O)CN(C)C(=O)[C@H]([C@@H](C)CC)NC3=O [PP2592] | A (a compound having 10 or more and less than 20 is denoted as A) | A (a compound having 10 or more and less than 20 is denoted as A) | – | – | – | – | –
10 | 1.6 nM | CCO[C@@H]1C[C@H]2C(=O)NC3(CC(F)(F)C3)C(=O)N(C)[C@@H](C3CCCC3)C(=O)N(C)[C@H](C(=O)N(C)C)CC(=O)N(C)[C@@H](CC3CCC3)C(=O)N[C@@H]([C@@H](C)CC)C(=O)N(C)CC(=O)N(C)[C@H]3C/C=C\CCN(C3=O)[C@@H](Cc3ccc(C(F)(F)F)cc3)C(=O)N(C)CC(=O)N[C@@H](CCc3cc(F)c(C(F)(F)F)c(F)c3)C(=O)N2C1 [PP1742] | – | – | – | A (a compound having 10 or more and less than 20 is denoted as A) | A (a compound having 10 or more and less than 20 is denoted as A) | – | –
11 | 2 nM | CCCN1C(=O)CN(C)C(=O)CNC(=O)[C@H]([C@@H](C)CC)NC(=O)[C@H](CC(C)C)N(C)C(=O)C[C@@H](C(=O)N2CCOCC2)N(C)C(=O)[C@H](C2CCCC2)N(C)C(=O)C2(CCCC2)NC(=O)[C@@H]2CC(C)(C)CN2C(=O)[C@H](CCc2ccc(C(F)(F)F)c(Cl)c2)NC(=O)CN(C)C(=O)[C@@H]1Cc1ccc(C(F)(F)F)cc1 [PP0448] ([NMeL]IG[Sar][NPrPhe(4-CF3)][Sar][hPhe(3-Cl-4-CF3)][Pro(4,4-Me2)][Ac5c][NMeGly(cPent)][NMeD]-Morpholide; lactam N-11) | – | – | – | – | – | C (A compound having a KD ratio of 0.1 or more and less than 3 is denoted as C) | B (a compound having 3 or more and less than 10 is denoted as B)
